The values that follow come from patent publication US20250145585A1, “HETEROCYCLIC INHIBITORS OF IGF-1R FOR TREATMENT OF DISEASE” (HORIZON THERAPEUTICS IRELAND DAC, priority 2023, published 2025).

As a reminder, the IC50 is the midpoint of a concentration-inhibition curve.

A value given as a limit tells only on which side of the number the result lay.

The target of the assay is T1, IGF-1R (Homo sapiens, UniProt P08069).
T1 construct: expressed in transfected cells
T1 sequence (P08069 31-1367): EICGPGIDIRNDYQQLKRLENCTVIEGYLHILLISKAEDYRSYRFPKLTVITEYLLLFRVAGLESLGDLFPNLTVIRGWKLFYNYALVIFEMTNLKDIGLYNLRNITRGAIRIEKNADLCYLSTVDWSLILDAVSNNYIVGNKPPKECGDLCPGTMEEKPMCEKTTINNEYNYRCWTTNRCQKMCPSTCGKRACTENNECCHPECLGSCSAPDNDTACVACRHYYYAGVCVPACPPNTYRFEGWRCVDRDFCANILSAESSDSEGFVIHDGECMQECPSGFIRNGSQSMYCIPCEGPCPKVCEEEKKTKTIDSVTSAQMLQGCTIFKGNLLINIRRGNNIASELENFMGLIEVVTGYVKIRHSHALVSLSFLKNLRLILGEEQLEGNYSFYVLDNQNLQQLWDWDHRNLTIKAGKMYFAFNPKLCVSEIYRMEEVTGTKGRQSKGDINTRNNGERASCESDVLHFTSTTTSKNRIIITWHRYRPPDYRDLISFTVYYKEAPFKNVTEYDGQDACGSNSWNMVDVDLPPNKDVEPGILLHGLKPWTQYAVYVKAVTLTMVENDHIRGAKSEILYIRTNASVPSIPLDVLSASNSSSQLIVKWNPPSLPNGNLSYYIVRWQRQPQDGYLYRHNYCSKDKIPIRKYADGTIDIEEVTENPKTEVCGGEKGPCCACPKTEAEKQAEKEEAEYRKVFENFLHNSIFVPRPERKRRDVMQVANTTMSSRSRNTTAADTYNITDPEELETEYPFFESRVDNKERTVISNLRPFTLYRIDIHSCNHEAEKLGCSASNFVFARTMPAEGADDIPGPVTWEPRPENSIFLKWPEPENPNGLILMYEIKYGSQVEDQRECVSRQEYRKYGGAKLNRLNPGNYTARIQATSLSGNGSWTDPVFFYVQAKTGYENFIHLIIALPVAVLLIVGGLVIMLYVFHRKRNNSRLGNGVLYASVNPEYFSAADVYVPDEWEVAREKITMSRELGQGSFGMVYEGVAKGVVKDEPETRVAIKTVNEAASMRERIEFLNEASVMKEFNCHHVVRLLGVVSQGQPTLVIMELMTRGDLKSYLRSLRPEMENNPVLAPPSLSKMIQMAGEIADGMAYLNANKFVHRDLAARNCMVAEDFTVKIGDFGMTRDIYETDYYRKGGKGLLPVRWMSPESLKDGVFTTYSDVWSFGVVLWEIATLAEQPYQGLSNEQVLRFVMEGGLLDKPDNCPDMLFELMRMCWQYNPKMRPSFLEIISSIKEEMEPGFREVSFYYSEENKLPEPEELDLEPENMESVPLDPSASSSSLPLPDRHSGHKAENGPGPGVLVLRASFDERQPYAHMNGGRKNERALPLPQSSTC
Put plainly: Example B-2: IGF-1R Assay (PathHunter cell lines, EC80 agonist challenge, chemiluminescent detection). Particulars: PathHunter cells, compound 60 minutes at 37° C., EC80 agonist 3 hours; read-out: IC50, Biological Activity against IGF-1R (Table B2). The assay is classed as cell-based. In short, it runs like this: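 PathHunter cells were pre-incubated with compound for 60 min at 37° C (1% vehicle), then challenged with EC80 agonist for 3 h at room temperature. Chemiluminescent detection after 1 h gave % inhibition relative to EC80 and vehicle controls, from which IC50 was derived.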
For `COC(C)CNc1cc(CN2C(=O)N(c3ccc(C4(C(F)(F)F)CC4)cc3)C(=O)C2(C)C)ccn1` (stereo not shown) [Compound 163, 1-((2-((2-methoxypropyl)amino)pyridin-4-yl)methyl)-5,5-dimethyl-3-(4-(1-(trifluoromethyl)cyclopropyl)phenyl) imidazolidine-2,4-dione], the IC50 was no more than 500 nM.
Consider `COC[C@@H](C)Nc1cc(CN2C(=O)N(c3ccc4c(c3)N(C)CC4(C)C)C(=O)C2(C)C)ccn1` [Compound 202, (R)-1-((2-((1-methoxypropan-2-yl)amino)pyridin-4-yl)methyl)-5,5-dimethyl-3-(1,3,3-trimethylindolin-6-yl)imidazolidine-2,4-dione], for which the IC50 is no more than 500 nM.
Turning to `CC1(C)C(=O)N(c2ccc(C3(C(F)(F)F)CC3)cc2)C(=O)N1Cc1ccnc(NCc2cn[nH]c2)c1` [Compound 171, 1-((2-(((1H-pyrazol-4-yl)methyl)amino)pyridin-4-yl)methyl)-5,5-dimethyl-3-(4-(1-(trifluoromethyl)cyclopropyl)phenyl) imidazolidine-2,4-dione], the IC50 is no more than 500 nM.
The result for `CC1(C)C(=O)N(c2ccc(S(=O)(=O)C(F)(F)F)cc2)C(=O)N1Cc1ccnc(N[C@H]2CCOCC2(F)F)c1` [Compound 343, (S)-1-((2-((3,3-difluorotetrahydro-2H-pyran-4-yl)amino)pyridin-4-yl)methyl)-5,5-dimethyl-3-(4-((trifluoromethyl)sulfonyl)phenyl) imidazolidine-2,4-dione] reads 2000 to 10000 nM; that for `CN(C)CC(=O)Nc1cc(N2C(=O)N(Cc3ccnc4c3CC(=O)N4)C(C)(C)C2=O)ccc1OC(F)(F)F` [Compound 54, N-(5-(4,4-dimethyl-2,5-dioxo-3-((2-oxo-2,3-dihydro-1H-pyrrolo[2,3-b]pyridin-4-yl)methyl)imidazolidin-1-yl)-2-(trifluoromethoxy)phenyl)-2-(dimethylamino)acetamide], no more than 500 nM; that for `C[C@H](CC#N)Nc1cc(CN2C(=O)N(c3ccc(C4(C(F)(F)F)CC4)cc3)C(=O)C2(C)C)ccn1` [Compound 147, (R)-3-((4-((5,5-dimethyl-2,4-dioxo-3-(4-(1-(trifluoromethyl)cyclopropyl)phenyl)imidazolidin-1-yl)methyl)pyridin-2-yl)amino)butanenitrile], no more than 500 nM.
Turning to `CC1(C)C(=O)N(c2ccc(C(C)(C)C(F)(F)F)cc2)C(=O)N1Cc1ccnc2c1C(F)(F)C(=O)N2` [Compound 49, 1-((3,3-difluoro-2-oxo-2,3-dihydro-1H-pyrrolo[2,3-b]pyridin-4-yl)methyl)-5,5-dimethyl-3-(4-(1,1,1-trifluoro-2-methylpropan-2-yl)phenyl)imidazolidine-2,4-dione], the IC50 was no more than 500 nM.
Under `CC1(C)C(=O)N(c2ccc3c(c2)N(S(C)(=O)=O)CC32CCC2)C(=O)N1Cc1ccnc(NCC23CCC(CC2)OC3)c1` [Compound 233, 1-((2-(((2-oxabicyclo[2.2.2]octan-4-yl)methyl)amino)pyridin-4-yl)methyl)-5,5-dimethyl-3-(1′-(methylsulfonyl)spiro[cyclobutane-1,3′-indolin]-6′-yl)imidazolidine-2,4-dione] stands no more than 500 nM.
Consider `CC1(C)C(=O)N(c2ccc(C(C)(C)C(F)(F)F)cc2)C(=O)N1Cc1ccnc2c1CC(=O)N2` [Compound 57, 5,5-dimethyl-1-((2-oxo-2,3-dihydro-1H-pyrrolo[2,3-b]pyridin-4-yl)methyl)-3-(4-(1,1,1-trifluoro-2-methylpropan-2-yl)phenyl)imidazolidine-2,4-dione], for which the IC50 was no more than 500 nM.
The result for `C[C@H](Nc1cc(CN2C(=O)N(c3ccc(S(=O)(=O)C(F)(F)F)cc3)C(=O)C2(C)C)ccn1)[C@H]1CCCO1` [Compound 340, 5,5-dimethyl-1-((2-(((S)-1-((R)-tetrahydrofuran-2-yl)ethyl)amino)pyridin-4-yl)methyl)-3-(4-((trifluoromethyl)sulfonyl)phenyl) imidazolidine-2,4-dione] reads 2000 to 10000 nM.
The result for `CC1(C)C(=O)N(c2ccc(C3(C(F)(F)F)CC3)cc2)C(=O)N1Cc1ccnc2c1CS(=O)(=O)N2` [Compound 44, 1-((2,2-dioxido-1,3-dihydroisothiazolo[3,4-b]pyridin-4-yl)methyl)-5,5-dimethyl-3-(4-(1-(trifluoromethyl)cyclopropyl)phenyl) imidazolidine-2,4-dione] reads greater than 10000 nM.
The result for `COCCC(C)Nc1cc(CN2C(=O)N(c3ccc(C(C)(C)C#N)cc3)C(=O)C2(C)C)ccn1` (stereo not shown) [Compound 156, 2-(4-(3-((2-((4-methoxybutan-2-yl)amino)pyridin-4-yl)methyl)-4,4-dimethyl-2,5-dioxoimidazolidin-1-yl)phenyl)-2-methylpropanenitrile] reads no more than 500 nM.
On to `C[C@@H](CC#N)Nc1cc(CN2C(=O)N(c3ccc(C(C)(C)C#N)cc3)C(=O)C2(C)C)ccn1` [Compound 151, (S)-3-((4-((3-(4-(2-cyanopropan-2-yl)phenyl)-5,5-dimethyl-2,4-dioxoimidazolidin-1-yl)methyl)pyridin-2-yl)amino)butanenitrile], for which the IC50 was in the range of 500 to 2000 nM.
On to `CC1(C)C(=O)N(c2ccc(S(=O)(=O)C(F)(F)F)cc2)C(=O)N1Cc1ccnc(N[C@@H]2[C@@H]3COC[C@@H]32)c1` [Compound 335, 1-((2-(((1R,5S,6s)-3-oxabicyclo[3.1.0]hexan-6-yl)amino)pyridin-4-yl)methyl)-5,5-dimethyl-3-(4-((trifluoromethyl)sulfonyl)phenyl) imidazolidine-2,4-dione], for which the IC50 fell in the range of 500 to 2000 nM.
Under `COC[C@@H]1COc2c(CN3C(=O)N(c4ccc(C5(C(F)(F)F)CC5)cc4)C(=O)C3(C)C)ccnc2N1` [Compound 72, (R)-1-((3-(methoxymethyl)-3,4-dihydro-2H-pyrido[3,2-b][1,4]oxazin-8-yl)methyl)-5,5-dimethyl-3-(4-(1-(trifluoromethyl)cyclopropyl)phenyl) imidazolidine-2,4-dione] stands no more than 500 nM; under `CC1(C)C(=O)N(c2ccc(C3(C(F)(F)F)CC3)cc2)C(=O)N1Cc1ccnc2c1OC[C@@H](CC#N)N2` [Compound 56, (R)-2-(8-((5,5-dimethyl-2,4-dioxo-3-(4-(1-(trifluoromethyl)cyclopropyl)phenyl)imidazolidin-1-yl)methyl)-3,4-dihydro-2H-pyrido[3,2-b][1,4]oxazin-3-yl) acetonitrile], no more than 500 nM.
Under `COC[C@@H](C)Nc1cc(CN2C(=O)N(c3ccc4c(c3)N(S(C)(=O)=O)CC43CC3)C(=O)C2(C)C)ccn1` [Compound 213, (R)-1-((2-((1-methoxypropan-2-yl)amino)pyridin-4-yl)methyl)-5,5-dimethyl-3-(1′-(methylsulfonyl)spiro[cyclopropane-1,3′-indolin]-6′-yl)imidazolidine-2,4-dione] stands no more than 500 nM; under `CC1(C)CN(S(C)(=O)=O)c2cc(N3C(=O)N(Cc4ccnc(N[C@@H]5C[C@@H]5F)c4)C(C)(C)C3=O)ccc21` [Compound 208, 3-(3,3-dimethyl-1-(methylsulfonyl)indolin-6-yl)-1-((2-(((1R,2S)-2-fluorocyclopropyl)amino)pyridin-4-yl)methyl)-5,5-dimethylimidazolidine-2,4-dione], no more than 500 nM.
The result for `CC(Nc1cc(CN2C(=O)N(c3ccc(C4(C(F)(F)F)CC4)cc3)C(=O)C2(C)C)ccn1)c1cnn(C)c1` (stereo not shown) [Compound 167, 5,5-dimethyl-1-((2-((1-(1-methyl-1H-pyrazol-4-yl)ethyl)amino)pyridin-4-yl)methyl)-3-(4-(1-(trifluoromethyl)cyclopropyl)phenyl) imidazolidine-2,4-dione] reads no more than 500 nM; that for `CC1(C)Cc2ccc(N3C(=O)N(Cc4ccnc(N[C@H]5[C@@H]6COC[C@@H]65)c4)C(C)(C)C3=O)cc2O1` [Compound 249, 1-((2-(((1R,5S,6r)-3-oxabicyclo[3.1.0]hexan-6-yl)amino)pyridin-4-yl)methyl)-3-(2,2-dimethyl-2,3-dihydrobenzofuran-6-yl)-5,5-dimethylimidazolidine-2,4-dione], no more than 500 nM; that for `CC(C)Nc1cc(CN2C(=O)N(c3ccc(S(=O)(=O)C4CC4)cc3)C(=O)C2(C)C)ccn1` [Compound 353, 3-(4-(cyclopropylsulfonyl)phenyl)-1-((2-(isopropylamino)pyridin-4-yl)methyl)-5,5-dimethylimidazolidine-2,4-dione], 500 to 2000 nM.
Take `Cn1ccnc1CNc1cc(CN2C(=O)N(c3ccc(C4(C(F)(F)F)CC4)cc3)C(=O)C2(C)C)ccn1` [Compound 183, 5,5-dimethyl-1-((2-(((1-methyl-1H-imidazol-2-yl)methyl)amino)pyridin-4-yl)methyl)-3-(4-(1-(trifluoromethyl)cyclopropyl)phenyl) imidazolidine-2,4-dione]: the IC50 is no more than 500 nM.
Under `CC1(C)C(=O)N(c2ccc(OC(F)(F)F)c(NS(C)(=O)=O)c2)C(=O)N1Cc1ccnc2c1CC(=O)N2` [Compound 283, N-(5-(4,4-dimethyl-2,5-dioxo-3-((2-oxo-2,3-dihydro-1H-pyrrolo[2,3-b]pyridin-4-yl)methyl)imidazolidin-1-yl)-2-(trifluoromethoxy)phenyl) methanesulfonamide] stands greater than 10000 nM; under `[2H]C([2H])([2H])Nc1cc(CN2C(=O)N(c3ccc4c(c3)N(S(C)(=O)=O)CC4(C)C)C(=O)C2(C)C)ccn1` [Compound 247, 3-(3,3-dimethyl-1-(methylsulfonyl)indolin-6-yl)-5,5-dimethyl-1-((2-((methyl-d3)amino)pyridin-4-yl)methyl)imidazolidine-2,4-dione], no more than 500 nM.
Regarding `CCOC(=O)N1C(=O)Cc2c(CN3C(=O)N(c4ccc(C5(C(F)(F)F)CC5)cc4)C(=O)C3(C)C)ccnc21` [Compound 78, ethyl 4-((5,5-dimethyl-2,4-dioxo-3-(4-(1-(trifluoromethyl)cyclopropyl)phenyl)imidazolidin-1-yl)methyl)-2-oxo-2,3-dihydro-1H-pyrrolo[2,3-b]pyridine-1-carboxylate], the IC50 was no more than 500 nM.
